Target: T1, PARK7 (Homo sapiens, UniProt Q99497)
T1 sequence (Q99497 1-189): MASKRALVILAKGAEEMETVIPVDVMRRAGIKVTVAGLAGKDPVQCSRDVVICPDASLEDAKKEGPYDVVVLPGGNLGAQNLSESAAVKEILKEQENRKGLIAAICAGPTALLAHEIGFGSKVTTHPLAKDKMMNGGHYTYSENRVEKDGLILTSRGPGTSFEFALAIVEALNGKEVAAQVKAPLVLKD
Experiment: High-throughput screen of the crude compound library, PARK7 fluorescence polarization (FP) assay with FP reagent JYQ-107
Format: biochemical
Conditions: 1.25 µM, crude compound library; read-out: HTS FP assay %Inhibition (1.25 µM)
Text: Therefore, taking JYQ-88 as a starting point, we conducted an optimization to further improve the molecule in terms of inhibitory potency, specificity, and cellular uptake. […] First, a small tailored library was designed and synthesized to investigate whether the introduction of larger, hydrophilic substituents on JYQ-88 would enhance the interaction with the PARK7 pocket. […] The second approach involved the generation of a compound library containing diverse substituents at the azidomethyl position. […] We next performed a high-throughput screen of this crude compound library using our in-house developed PARK7 fluorescence polarization (FP) assay.[15]

| Structure (SMILES) | inhibition at 1.25 µM |
| --- | --- |
| N#CN1CC[C@@H](C(=O)Nc2nc3c(s2)CN(C(=O)c2ccc(CNS(=O)(=O)c4ccc(F)c(F)c4F)cc2)CC3)C1 [compound 151] | 81.1% |
| CC1CCCC(N2CC(C(=O)N3CCc4nc(NC(=O)[C@@H]5CCN(C#N)C5)sc4C3)CC2=O)C1C (stereo partly shown) [compound 153] | 64.4% |
| N#CN1CC[C@@H](C(=O)Nc2nc3c(s2)CN(C(=O)c2csc(-c4cnc[nH]4)n2)CC3)C1 [compound 154] | 77.3% |
| Cc1cc(C(=O)N2CCc3nc(NC(=O)[C@@H]4CCN(C#N)C4)sc3C2)c(C)n1C1CC1 [compound 155] | 47.7% |
| CN(CC(=O)N1CCCC(C(=O)N2CCc3nc(NC(=O)[C@@H]4CCN(C#N)C4)sc3C2)C1)c1ccc(Cl)cn1 (stereo partly shown) [compound 157] | 83.5% |
| N#CN1CC[C@@H](C(=O)Nc2nc3c(s2)CN(C(=O)C2CCN(C(=O)c4ccccn4)CC2)CC3)C1 [compound 158] | 69.2% |
| N#CN1CC[C@@H](C(=O)Nc2nc3c(s2)CN(C(=O)c2cc(Cl)nc(N4CCCC4)c2)CC3)C1 [compound 160] | 74.9% |
| Cc1nc(-c2c[nH]c(C(=O)N3CCc4nc(NC(=O)[C@@H]5CCN(C#N)C5)sc4C3)c2)cs1 [compound 161] | 86.4% |
| N#CN1CC[C@@H](C(=O)Nc2nc3c(s2)CN(C(=O)c2cccnc2N2CCCCC2)CC3)C1 [compound 167] | 69.5% |
| Cc1ccc(N2CCCC(C(=O)N3CCc4nc(NC(=O)[C@@H]5CCN(C#N)C5)sc4C3)C2)nc1 (stereo partly shown) [compound 170] | 62.7% |
| Cc1cc(COc2ccc(C(=O)N3CCc4nc(NC(=O)[C@@H]5CCN(C#N)C5)sc4C3)cc2Br)no1 [compound 173] | 72.5% |
| N#CN1CC[C@@H](C(=O)Nc2nc3c(s2)CN(C(=O)c2ccnc(N4CCOCC4)n2)CC3)C1 [compound 180] | 87.3% |
| N#CN1CC[C@@H](C(=O)Nc2nc3c(s2)CN(C(=O)c2cncc(N4CCCC4)n2)CC3)C1 [compound 182] | 81.9% |
| N#CN1CC[C@@H](C(=O)Nc2nc3c(s2)CN(C(=O)c2cn(CC4CCCO4)nn2)CC3)C1 (stereo partly shown) [compound 186] | 83.8% |
| CN1CCN(C(=O)[C@@H]2[C@@H](C(=O)N3CCc4nc(NC(=O)[C@@H]5CCN(C#N)C5)sc4C3)C2(C)C)CC1 [compound 189] | 66.8% |
| Cc1csc(N2CCC(C(=O)N3CCc4nc(NC(=O)[C@@H]5CCN(C#N)C5)sc4C3)CC2)n1 [compound 190] | 51.8% |
| N#CN1CC[C@@H](C(=O)Nc2nc3c(s2)CN(C(=O)c2cc(Cn4cc(Cl)cn4)cs2)CC3)C1 [compound 191] | 86.7% |
| Cc1nc(COc2ccc(C(=O)N3CCc4nc(NC(=O)[C@@H]5CCN(C#N)C5)sc4C3)cc2)no1 [compound 192] | 84.8% |
| CN(Cc1ccnn1C)C(=O)C1CCCCC1C(=O)N1CCc2nc(NC(=O)[C@@H]3CCN(C#N)C3)sc2C1 (stereo partly shown) [compound 193] | 73% |
| N#CN1CC[C@@H](C(=O)Nc2nc3c(s2)CN(C(=O)c2ccc(CN4CCCCCC4)s2)CC3)C1 [compound 195] | 72.4% |
| Cc1nc(-c2cc(C)n(CCC(=O)N3CCc4nc(NC(=O)[C@@H]5CCN(C#N)C5)sc4C3)c2C)cs1 [compound 196] | 61.7% |
| Cc1noc(C)c1S(=O)(=O)N1CCC(C(=O)N2CCc3nc(NC(=O)[C@@H]4CCN(C#N)C4)sc3C2)CC1 [compound 198] | 65.2% |
| N#CN1CC[C@@H](C(=O)Nc2nc3c(s2)CN(C(=O)c2cc(N4CCOCC4)ccn2)CC3)C1 [compound 201] | 72.2% |
| N#CN1CC[C@@H](C(=O)Nc2nc3c(s2)CN(C(=O)c2ccc(S(=O)(=O)Nc4cccc(Cl)c4F)o2)CC3)C1 [compound 205] | 72.5% |
| N#CN1CC[C@@H](C(=O)Nc2nc3c(s2)CN(C(=O)C2CCCN2C(=O)c2ccncc2)CC3)C1 (stereo partly shown) [compound 206] | 50.6% |
| N#CN1CC[C@@H](C(=O)Nc2nc3c(s2)CN(C(=O)c2cc(C4CC4)n[nH]2)CC3)C1 [compound 209] | 86.7% |
| N#CN1CC[C@@H](C(=O)Nc2nc3c(s2)CN(C(=O)c2ccc(N4CCCC4)c(F)c2)CC3)C1 [compound 211] | 86.4% |

Further lines, results first:

| inhibition at 1.25 µM | Structure (SMILES) |
| --- | --- |
| 82.4% | N#CN1CC[C@@H](C(=O)Nc2nc3c(s2)CN(C(=O)c2ccc(OCn4cc(Cl)cn4)cc2)CC3)C1 [compound 147] |
| 80.2% | N#CN1CC[C@@H](C(=O)Nc2nc3c(s2)CN(C(=O)Cc2cnn(-c4ccccc4)c2)CC3)C1 [compound 148] |
| 62.5% | CCS(=O)(=O)N1CCC(C(=O)N2CCc3nc(NC(=O)[C@@H]4CCN(C#N)C4)sc3C2)(c2ccccc2)CC1 [compound 150] |
| 80.2% | N#CN1CC[C@@H](C(=O)Nc2nc3c(s2)CN(C(=O)c2ccc(Cn4cncn4)cc2)CC3)C1 [compound 159] |
| 82.9% | N#CN1CC[C@@H](C(=O)Nc2nc3c(s2)CN(C(=O)Cc2ccn(-c4ccccc4)n2)CC3)C1 [compound 162] |
| 87.3% | N#CN1CC[C@@H](C(=O)Nc2nc3c(s2)CN(C(=O)c2ccc(-c4ccccc4)o2)CC3)C1 [compound 166] |
| 80.3% | N#CN1CC[C@@H](C(=O)Nc2nc3c(s2)CN(C(=O)C2=NNC(=O)C2c2ccccc2)CC3)C1 (stereo partly shown) [compound 168] |
| 77.8% | Cc1nn(-c2ccc(C(F)(F)F)cn2)c(C)c1CC(=O)N1CCc2nc(NC(=O)[C@@H]3CCN(C#N)C3)sc2C1 [compound 169] |
| 77.5% | N#CN1CC[C@@H](C(=O)Nc2nc3c(s2)CN(C(=O)c2ccc(-c4cnco4)cc2)CC3)C1 [compound 171] |
| 86.7% | Cn1nc(C(=O)N2CCc3nc(NC(=O)[C@@H]4CCN(C#N)C4)sc3C2)cc1-c1cccnc1 [compound 172] |
| 78.6% | COc1ccc(C(=O)N2CCc3nc(NC(=O)[C@@H]4CCN(C#N)C4)sc3C2)cc1S(=O)(=O)NCCc1ccccn1 [compound 175] |
| 68.5% | Cc1onc(-c2ccccn2)c1C(=O)N1CCc2nc(NC(=O)[C@@H]3CCN(C#N)C3)sc2C1 [compound 176] |
| 78.6% | N#CN1CC[C@@H](C(=O)Nc2nc3c(s2)CN(C(=O)C(=O)N2CCN(c4ccccc4)CC2)CC3)C1 [compound 177] |
| 45.6% | N#CN1CC[C@@H](C(=O)Nc2nc3c(s2)CN(C(=O)C(F)(F)n2cc(-c4ccccc4)nn2)CC3)C1 [compound 178] |
| 81% | N#CN1CC[C@@H](C(=O)Nc2nc3c(s2)CN(C(=O)C2Cc4ccccc42)CC3)C1 (stereo partly shown) [compound 179] |
| 72.7% | N#CN1CC[C@@H](C(=O)Nc2nc3c(s2)CN(C(=O)C2COCCN2C(=O)OCc2ccccc2)CC3)C1 (stereo partly shown) [compound 181] |
| 65.5% | CN(Cc1ccccc1)S(=O)(=O)c1ccc(C(=O)N2CCc3nc(NC(=O)[C@@H]4CCN(C#N)C4)sc3C2)cc1 [compound 183] |

| inhibition at 1.25 µM | Structure (SMILES) |
| --- | --- |
| 86.9% | Cn1nc(-c2cccnc2)cc1C(=O)N1CCc2nc(NC(=O)[C@@H]3CCN(C#N)C3)sc2C1 [compound 184] |
| 77.5% | N#CN1CC[C@@H](C(=O)Nc2nc3c(s2)CN(C(=O)c2cnoc2-c2ccccc2C(F)(F)F)CC3)C1 [compound 185] |
| 59.2% | Cn1cc(-c2cc[nH]n2)c(C(=O)N2CCc3nc(NC(=O)[C@@H]4CCN(C#N)C4)sc3C2)n1 [compound 187] |
| 80.2% | COc1ccc(C(=O)N2CCc3nc(NC(=O)[C@@H]4CCN(C#N)C4)sc3C2)cc1S(=O)(=O)NCc1ccccn1 [compound 194] |
| 72.4% | N#CN1CC[C@@H](C(=O)Nc2nc3c(s2)CN(C(=O)c2ccc(-c4cccs4)[nH]c2=O)CC3)C1 [compound 200] |
| 81% | N#CN1CC[C@@H](C(=O)Nc2nc3c(s2)CN(C(=O)Cc2csc(-c4nnc[nH]4)n2)CC3)C1 [compound 202] |
| 70.1% | N#CN1CC[C@@H](C(=O)Nc2nc3c(s2)CN(C(=O)c2ccc(-n4cccn4)cc2)CC3)C1 [compound 203] |
| 73.6% | Cc1ccccc1COc1cccc(CC(=O)N2CCc3nc(NC(=O)[C@@H]4CCN(C#N)C4)sc3C2)c1 [compound 204] |
| 70% | Cc1ccc(S(=O)(=O)N[C@@H](Cc2ccccc2)C(=O)N2CCc3nc(NC(=O)[C@@H]4CCN(C#N)C4)sc3C2)cc1 [compound 207] |
| 86.4% | N#CN1CC[C@@H](C(=O)Nc2nc3c(s2)CN(C(=O)c2csc(-c4ccc(Br)s4)n2)CC3)C1 [compound 208] |
| 63.9% | N#CN1CC[C@@H](C(=O)Nc2nc3c(s2)CN(C(=O)c2cc(-c4ccncc4)on2)CC3)C1 [compound 210] |
| 85.1% | N#CN1CC[C@@H](C(=O)Nc2nc3c(s2)CN(C(=O)Cc2ccc(OCCOc4ccccc4)cc2)CC3)C1 [compound 212] |
| 67.7% | Cc1cc(C(=O)N2CCc3nc(NC(=O)[C@@H]4CCN(C#N)C4)sc3C2)c(C)n1-c1cccnc1 [compound 213] |
| 59.5% | N#CN1CC[C@@H](C(=O)Nc2nc3c(s2)CN(C(=O)c2csc(-c4ccncc4)n2)CC3)C1 [compound 214] |
| 76.7% | N#CN1CC[C@@H](C(=O)Nc2nc3c(s2)CN(C(=O)C2CN(C(=O)OCc4ccccc4)CCO2)CC3)C1 (stereo partly shown) [compound 216] |
| 69.2% | N#CN1CC[C@@H](C(=O)Nc2nc3c(s2)CN(C(=O)c2cccn2-c2c(Cl)cccc2Cl)CC3)C1 [compound 218] |
| 27.6% | Cn1cc(-c2ccc(C(=O)N3CCc4nc(NC(=O)[C@@H]5CCN(C#N)C5)sc4C3)o2)cn1 [compound 220] |

— paper PMC11129182, “Development of Inhibitors, Probes, and PROTAC Provides a Complete Toolbox to Study PARK7 in the Living Cell” (Journal of Medicinal Chemistry, 2024)
